Test results reported in US20090149332A1, “METHODS FOR DETERMINING THE ACTIVITY OF ADAM-TS PROTEASES USING THIOPEPTOLIDES” (SANOFI-AVENTIS DEUTSCHLAND GMBH, priority 2005, published 2009).
[ ]: non-standard residue; d: D form. The star is where a group is joined. Dnp = O=[N+]([O-])c1ccc(*)c([N+](=O)[O-])c1; Mca = COc1ccc2c(CC(=O)*)cc(=O)oc2c1; Nva = CCC[C@H](N)C(=O)O; Dap = NC[C@H](N)C(=O)O; Mob = COc1ccc(C*)cc1

Assays:
Assay type in all cases: biochemical
ADAMTS-1 = assay: Colorimetric thiopeptolide conversion assay, Ellman's reaction with DTNB (Example 2); parameters: key: +: Increase in the optical signal was observed over 5 minutes; conditions: absorption at 415 nm for 5 min
Experimental: (§1) TNCB Buffer (see Example 1)
(§2) ADAMTS (Invitek Gesellschaft für Biotechnik & Biodesign mbH, Berlin, Germany) 5 μg of ADAMTS-1 were diluted with 2200 μL, and 5 μg of ADAMTS-4 were diluted with 600 μl of TNCB buffer.
(§3) 1) DTNB Solution (5,5′-dithiobis(2-nitrobenzoic Acid):
(§4) A 40 mM stock solution in DMSO was prepared:
(§5) Then 27.5 μL of DTNB stock solution were diluted with 522 μL of water.
(§6) A 100 mM stock solution in DMSO was prepared. For use, 55 μL of thiopeptilide stock solution were diluted with 500 μL of TNCB buffer.
(§7) Immediately before use, 550 μl of DTNB were mixed with 550 μl of thiopeptilide.
(§8) The measurements were carried out in 96-multiwell plates (half area plates, flat bottom, clear, polystyrene, No. 3695) (Corning Costar, Acton, USA).
(§9) 10 μL of enzyme solution and 10 μL of H2O were mixed, and the reaction was started by adding 10 μL of substrate solution.
(§10) Microtiter plate photometer: Molecular Devices Sunnyvale, USA. SpectraMax 190.

ADAMTS-4 = assay: as above; parameters: key: +: Increase in the optical signal was observed over 5 minutes; conditions: absorption at 415 nm for 5 min
Experimental: as §1, §2, §3, §4, §5, §6, §7, §8, §9, §10

MMP-3cd [1] = target: T1, MMP-3cd (Homo sapiens, UniProt P08254); assay: as above; parameters: key: +: Increase in the optical signal was observed over 5 minutes; conditions: absorption at 415 nm for 5 min
T1 construct: The catalytic domains of the human recombinant MMP-3 and MMP-8 protein, MMP-3cd and MMP-8cd; purchased Biomol International L. P. Pennsylvania, USA SE-109
Experimental: as §1, §3, §4, §5, §6, §7, §8, §9, §10

MMP-8cd [2] = target: T2, MMP-8cd (Homo sapiens, UniProt P22894); assay: as above; parameters: key: +: Increase in the optical signal was observed over 5 minutes; conditions: absorption at 415 nm for 5 min
T2 construct: The catalytic domains of the human recombinant MMP-3 and MMP-8 protein, MMP-3cd and MMP-8cd; purchased Biomol International L. P. Pennsylvania, USA SE-255
Experimental: as §1, §3, §4, §5, §6, §7, §8, §9, §10

ADAMTS = assay: Colorimetric thiopeptolide conversion assay (Example 2); conditions: Example 2, ADAMTS-1 and ADAMTS-4 tested
Experimental: as §1, §2, §3, §4, §5, §6, §7, §8, §9, §10

MMP-3cd [3] = target: T1, MMP-3cd; assay: Fluorometric substrate conversion assay (Comparative Example 1); parameters: key to Conversion of fluorimetric substrate by MMP-3 cd (increase in the optical signal): +: Increase in the optical signal was observed over 5 minutes; conditions: for Conversion of fluorimetric substrate by MMP-3 cd (increase in the optical signal): fluorescence measured for 5 minutes, λex/λem per substrate
Experimental: (§11) The catalytic domains of the human recombinant MMP-3 and MMP-8 protein, MMP-3cd and MMP-8cd, can be purchased from, for example, Biomol International L. P. Pennsylvania, USA; catalog number SE-109 and SE-255 respectively. The truncated forms of ADAM-TS1 and ADAM-TS4 protease can likewise be purchased from, for example, Invitek, Gesellschaft für Biotechnik & Biodesign mbH, Berlin, Germany, catalog number 30400402 and 30400102, respectively.
(§12) 100 mM tris(hydroxymethyl)aminomethane, adjusted to pH 7.5 with HCl-100
(§13) 10 mM substrates (see Table) in DMSO, immediately before use, 2 μL of the substrate stock solution were diluted with 130 μL of H2O.
(§14) MMP-3cd (2.3 μg/mL), MMP-8cd (0.6 μg/mL), ADAMTS-1 (2.3 μg/mL) and ADAMTS-4 (3.3 μg/mL) were diluted with TNCB buffer.
(§15) 10 μL of enzyme solution were mixed with 10 μL of H2O, and the reaction was started by adding 10 μL of substrate solution.
(§16) The fluorescence was measured in a TECAN Spectrafluor Plus fluorescence apparatus; Excitation/Emission (see Table). This entailed measuring the fluorescence for 5 minutes on each occasion.

MMP-8cd [4] = target: T2, MMP-8cd; assay: as above; parameters: key to Conversion of fluorimetric substrate by MMP-8 cd (increase in the optical signal): +: Increase in the optical signal was observed over 5 minutes; conditions: for Conversion of fluorimetric substrate by MMP-8 cd (increase in the optical signal): fluorescence measured for 5 minutes, λex/λem per substrate
Experimental: as §11, §12, §13, §14, §15, §16

T2 sequence (P22894 100-262 limits assumed): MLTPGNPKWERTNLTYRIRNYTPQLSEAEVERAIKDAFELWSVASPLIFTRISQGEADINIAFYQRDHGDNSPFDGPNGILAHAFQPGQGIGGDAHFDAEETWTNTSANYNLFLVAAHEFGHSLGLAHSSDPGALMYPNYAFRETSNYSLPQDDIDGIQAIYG
T1 sequence (P08254 100-272 limits assumed): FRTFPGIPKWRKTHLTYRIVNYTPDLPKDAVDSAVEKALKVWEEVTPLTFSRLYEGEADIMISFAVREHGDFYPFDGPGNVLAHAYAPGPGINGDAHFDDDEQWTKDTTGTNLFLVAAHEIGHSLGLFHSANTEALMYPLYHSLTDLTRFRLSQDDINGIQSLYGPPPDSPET

Compound	Conversion of fluorimetric substrate by MMP-3 cd (increase in the optical signal) (MMP-3cd [3])	Conversion of fluorimetric substrate by MMP-8 cd (increase in the optical signal) (MMP-8cd [4])	further results
CCOC(=O)CNC(=O)[C@H](CC(C)C)NC(=O)C(CC(C)C)SC(=O)CNC(=O)[C@H](CC(C)C)NC(=O)[C@@H]1CCCN1C(C)=O (stereo partly drawn) [Compound 1, Ac—P-L-G-[(S)-2-mercapto-4-methylpentanoyl]-L-G-OEt]	–	–	Conversion of colorimetric substrate in Ellman's reaction by ADAMTS-1 (ADAMTS-1): +; Conversion of colorimetric substrate in Ellman's reaction by ADAMTS-4 (ADAMTS-4): +; Conversion of colorimetric substrate in Ellman's reaction by MMP-3 cd (MMP-3cd [1]): +; Conversion of colorimetric substrate in Ellman's reaction by MMP-8 cd (MMP-8cd [2]): +; Conversion by ADAMTS (in words) (ADAMTS): converted
CCCC(SC(=O)C(C)NC(=O)[C@H](CC(C)C)NC(=O)[C@@H]1CCCN1C(C)=O)C(=O)N[C@@H](Cc1c[nH]c2ccccc12)C(N)=O (stereo partly drawn) [Compound 2, Ac—P-L-A-[(S)-2-mercaptopentanoyl]-W—NH2]	–	–	Conversion of colorimetric substrate in Ellman's reaction by MMP-3 cd (MMP-3cd [1]): +; Conversion of colorimetric substrate in Ellman's reaction by MMP-8 cd (MMP-8cd [2]): +; Conversion by ADAMTS (in words) (ADAMTS): not converted
(7-methoxycoumarin-4-yl)acetyl-Pro-Leu-Gly-Leu-3-(2′,4′-dinitro-phenyl)-L-2,3-diaminopropionyl-Ala-Arg-NH2 [Mca-P-L-G-L-Dap(Dnp)-A-R—NH2]	+	+	Conversion with the protease MMP-3 (in words) (MMP-3cd [3]; see experimental section): possible to convert; Conversion with the protease MMP-8 (in words) (MMP-8cd [4]; see experimental section): possible to convert
Dnp-P-L-G-L-W-A-R—NH2 (Dnp-PLGLWAR-NH2; SMILES CC(C)C[C@H](NC(=O)CNC(=O)[C@H](CC(C)C)NC(=O)[C@@H]1CCCN1c1ccc([N+](=O)[O-])cc1[N+](=O)[O-])C(=O)N[C@@H](Cc1c[nH]c2ccccc12)C(=O)N[C@@H](C)C(=O)N[C@@H](CCCNC(=N)N)C(N)=O) [fluorimetric MMP substrate, Bachem M-1855]	+	–	–
Dnp-P-β-cyclohexyl-A-G-C(Me)-H-A-K—(N-Me-Abz)-NH2	+	+	–
Mca-GKPILFFRLK(Dnp)R-NH2	+	–	–
Mca-P-β-cyclohexyl-A-G-Nva-H-A-Dpa-NH2	+	+	–
Mca-PLAC(Mob)WAR[Dap](Dnp)-NH2	+	+	–
Mca-PLAQAV[Dap](Dnp)RSSSR-NH2	+	–	–
Mca-PLA[Nva][Dap](Dnp)AR-NH2	+	+	–
Mca-RPLALWR[Dap](Dnp)-NH2	+	+	–
Mca-R—P—K—P—V-E-Nval-W—R—K-(Dnp)-NH2	+	–	–
Mca-R—P—K—P—Y-A-Nva-Met-K(Dnp)-NH2	+	+	–
NBD-eAhx-R—P—K—P-L-A-Nva-W—K(DMACA)-NH2	+	+	–
